Measurements reported in patent US20250354096A1, “IN VITRO DEVICE FOR VASCULARIZED MICROFLUIDIC MODELING OF OSTEOCHONDRAL UNIT” (CFD Research Corporation, priority 2024, published 2025).

How the values were obtained:
[1] = test system: MMPs (catabolic genes related to OA) in bone and cartilage channels; experiment: qPCR of MMP changes in OC device after defined inflammatory cytokines and drug candidate; assay type: cell-based, human; conditions: combination of defined inflammatory cytokines for 24 hours, then Tyrphostin-9; versus no treatment and cytokine alone; FIGS. 11A-11F
Text: The qPCR data from extracted cells was obtained from the cells that can be individually extracted on a per-channel basis so that tissues can be analyzed separately. […] Statistical significance determined by Kruskal-Wallis non-parametric test followed by Dunn's post hoc. * p<0.05, ** p<0.01, and *** p<0.001. FIGS. 10A, 10C, and 10E show bone. FIGS. 10B, 10D, and 10F show cartilage.
FIGS. 11A-11F include data that show the MMP changes in response to the combination of defined cytokines and a drug candidate. Devices were exposed to a combination of defined inflammatory cytokines for 24 hours. After 24 hours, the devices were exposed to either fresh medium without cytokines, or to Tyrphostin-9 (TY9), a candidate compound with potential anti-inflammatory effects under consideration as a palliative for osteoarthritis (OA). […] Thus, the device can be used to screen for drugs to treat OA.

[2] = test system: tri-culture of hMSC derived chondrocytes, hMSC derived osteoblasts and HUVEC; experiment: Inflammatory assay: oxidative stress (CellROX Orange ROS) in tri-culture OC device; assay type: cell-based, human; conditions: 100 ng/mL LPS perfused into channel 3, no RAP; 4 hours without flow; versus control; n=3; FIG. 8
Method: In the tri-culture device, OA-like cues were supplied to observe i) oxidative stress induced by LPS conditioning, and ii) the reduction of the oxidative stress in the simultaneous presence of LPS and the anti-inflammatory drug Rapamycin (RAP). Thus, three conditions were investigated: no insult (control,-LPS-RAP), insult (+LPS−RAP), and insult plus treatment (+LPS+RAP). For the insult, the medium was exchanged in established devices with 100 ng/mL LPS perfused into channel 3 to maximize inflammation across the device by supplying LPS in the closest proximity to both bone and vasculature. […]
Resultant oxidative stress was measured by image processing after four hours by the CellROX™ Orange Reactive Oxygen Species Detection Kit (Thermo Fisher), a fluorometric reactive oxygen species (ROS) assay, according to the manufacture's protocol. […] The same microscope was used to capture images for each experiment and exposure and other microscope settings were kept constant to allow quantitative comparisons between micrographs. Quantitative measurement of relative ROS was conducted by image analysis via ImageJ and Matlab®. Briefly, for each condition (i.e., i)-LPS-RAP; ii)+LPS-RAP; iii)+LPS+RAP) images were split into three regions of interest (ROIs), representing the three channel of the devices (vasculature, bone, cartilage), that were separately analyzed. […]

Molecule | MMP changes (fold change) / inflammatory condition [1] | oxidative stress of the cells (relative ROS, normalized image intensity) [2]
CC(C)(C)c1cc(C=C(C#N)C#N)cc(C(C)(C)C)c1O [Tyrphostin-9] | inflammatory condition is improved | –
lipopolysaccharide [LPS] | – | increases the oxidative stress of the cells in all the compartment
